Results published in patent US5369030A, “Method of inducing cellular differentiations and altering cell phenotype using ceramide analogs” (Duke University, priority 1992, dated 1994).
Like-named read-outs stand apart in the source and are kept apart here.

Tests used:
HL-60 cells [1] = test: HL-60 cell growth/proliferation, cells counted with a hemocytometer; format: cell-based, human; conditions: for cell density / inhibition of cell growth (in words): Example 3C; for cell density: starting density 2×10^5 cells/ml; for inhibition of cell growth (in words): time course to 108 hours
Protocol: (§1) Human myelocytic leukemia HL-60 cells (20-45 passages (American Type Culture Collection, Rockville, Md., accession no. CCL 240) were obtained and grown in RPMI 1640 medium (Sigma Chemical Co., St. Louis, Mo.) containing 10% fetal calf serum at 37° C. in 5% CO2 incubator at a cell density of 2×10^5 cells/mi. The cells were washed once with phosphate buffered saline (PBS) and resuspended in serum-free media containing insulin (5 mg/liter) and transferrin (5 mg/liter) for 2-3 hours before treatment with various compounds.
HL-60 cells were treated with 3 μM of Cn-L-t-APPD with acyl chain lengths of C6, C8, C10, C12, C14, C16, and C18 (m=4, 6, 8, 10, 12, 14 and 16) in fresh ehtanol solution or with an ethanol vehicle and cell growth was determined following three days of treatment. Cell growth was quantified using a hemocytometer. Cell viability was judged by the ability to exclude trypan blue dye. Viability was always more than 80% unless otherwise described.
HL-60 cells (starting cell density of 2×10^5 cells/ml) were treated with different concentrations of C14-L-t-APPD and cells were counted following 24 and 72 hours of treatment. The results are representative of three experiments. A 1μM dose of C14-L-t-APPD had little or no effect on cell growth at 24 or 72 hours (approximately 105% and 130% of control, respectively). A 2μM dose inhibited cell growth to approximately 65% of the control at both 24 and 72 hours. […] The IC50% was approximately 2 μM (10 fmol/cell). IC50% is the concentration of test compound that causes 50% inhibition of cell growth in comparison with controls. Thus, similar to results with C2-ceramide, C14-APPD inhibited cell proliferation at different durations of treatment.
HL-60 cells (starting cell density of 2×10^5 cells/ml) were treated with 3 μM Cn-L-t-APPD derivatives with N-acyl chain lengths of C6, C8, C10, C12, C14, C16, and C18 (m=4,6,8,10, 12, 14, and 16) and cells were counted at 0, 12, 36, 60, 84 and 108 hours post treatment. The results are representative of 3 experiments.
N-acyl derivatives of 2-amino-1-(4'-nitrophenyl)-1,3-propanediol (Cn-D-t-ANPPD) were tested to determine the effects of chain length on HL-60 cell growth as described in Examples 3 A. HL-60 cells (at a starting cell density of 2×10^5 cells/ml) were treated with 3 μM of the diff analogs (C6, C8, C10, C12, C14, C16 and C18) of Cn-D-t-ANPPD, and cell growth was determined at three days. The control received no Cn-D-t-ANPPD. Treatment of HL-60 cells with C2-ceramide is included for comparison.
HL-60 cells were treated with the indicated concentrations and cell growth was determined following three days of treatment as described in Example 3B.
The suitability of phenylaminopropanediol derivatives as analogs of ceramide allowed further investigation of the structural requirements for ceramide-mediated biology. For these experiments, C14 (N-myristoyl) derivatives of different phenylaminoalcohols were synthesized and examined for their biologic activity. HL-60 cells (starting cell density of 2×10^5 cells/ml) were treated with 3 μM of C14 derivatives C14-L-t-APPD, C14-D-t-ANPPD, C14-D-e-APP-1, C14-L-e-APP-1, C14-APP-3 and C14-D-APP3. The structures of these compounds are provided in Table I. Cell growth was determined at 3 days as described in Example 3A. The results shown are averages of two determinations, and are representative of five different experiments.
and C14-L-e-APP-1 HL-60 cells were treated as described in Example 3B. growth was determined after 3 days of treatment.

HL-60 cells [2] = test: HL-60 differentiation, H2O2 generation; format: cell-based, human; conditions: for H2O2 generation: 2 μM C2-ceramide alone
Protocol: as §1
Therefore, 3 μM C14-L-t-APPD was applied to HL-60 cells either alone or in combination with subthreshold levels (0.3 nM) of 1,25-dihydroxyvitamin D3 (D3), and cell differentiation was determined at 60 and 108 hours following treatment by quantitating […] generation, a marker of HL-60 differentiation. Subthreshold levels of D3 refers to levels of D3 that are too low to induce differentiation of HL60 cells.
H2 O2 production was quantitated as described in Goodwin, B. J. and Weinberg, J. B., J. Clin. Invest. 70:699-706 (1982) and Pick, E. and Mizel, D. J. Immunol. Methods 46: 211-226 (1981). For comparison, HL60 cell differentiation obtained with 2 μM C2-ceramide alone and 0.3 nM vitamin D3 are were also determined.

[3] = Example 5, 3 μM C14 derivatives, 3 days
[4] = Example 4A, Table II, 3 μM Cn-D-t-ANPPD (C2-ceramide concentration not given), three days
[5] = Homo sapiens, HL-60, 72 h, Example 4A, Table II, 3 μM Cn-D-t-ANPPD (C2-ceramide concentration not given), three days, read-out: CELL GROWTH (% OF CONTROL)
[6] = Example 3A, 3 μM Cn-L-t-APPD, three days

SMILES | activity at 3 µM (HL-60 cells [1]; [5]) | cell growth, % of control (HL-60 cells [1]; [6]) | cell density (HL-60 cells [1]; 3 μM, 60 hours) | cell density (HL-60 cells [1]; 3 μM, 84 hours) | cell density (HL-60 cells [1]; 3 μM, 108 hours) | further results
CCCCCCCCCCCCCC(=O)N[C@@H](C)[C@H](O)c1ccccc1 (relative stereo) [C14-DL-e-APP-1] |  |  |  |  |  | cell growth, % of control (HL-60 cells [1]; [3]): 60%
CCCCCCCCCCCCC/C=C/[C@@H](O)[C@H](CO)NC(C)=O [C2-ceramide, N-acetyl-C18-sphingosine, reference compound] |  |  |  |  |  | H2O2 generation (HL-60 cells [2]; 60 hours): approximately 0.3 nmol H2O2 /10^5 cells; H2O2 generation (HL-60 cells [2]; 108 hours): approximately 0.3 nmol H2O2 /10^5 cells; H2O2 generation, combination (HL-60 cells [2]; 2 μM C2-ceramide in combination with 1,25-dihydroxyvitamin D3): approximately 0.9 nmol/10^5 cells; cell density (HL-60 cells [1]; C2-ceramide, concentration not given, 108 hours): 200000 mL⁻¹; CELL GROWTH (% OF CONTROL) (HL-60 cells [1]; [4]): 20 % OF CONTROL; cell growth, % of control (HL-60 cells [1]; [3]): 20%
CCCCCC(=O)N[C@H](CO)[C@H](O)c1ccc([N+](=O)[O-])cc1 [C6-D-t-ANPPD] | 70% |  |  |  |  | 
CCCCCC(=O)N[C@@H](CO)[C@@H](O)c1ccccc1 [C6-L-t-APPD] |  | 105% | 800000 mL⁻¹ | 1.4e+06 mL⁻¹ | 2.4e+06 mL⁻¹ | 
CCCCCCCC(=O)N[C@H](CO)[C@H](O)c1ccc([N+](=O)[O-])cc1 [C8-D-t-ANPPD] | 70% |  |  |  |  | 
CCCCCCCC(=O)N[C@@H](CO)[C@@H](O)c1ccccc1 [C8-L-t-APPD] |  | 104% | 800000 mL⁻¹ | 1.4e+06 mL⁻¹ | 2.4e+06 mL⁻¹ | 
CCCCCCCCCC(=O)N[C@H](CO)[C@H](O)c1ccc([N+](=O)[O-])cc1 [C10-D-t-ANPPD] | 68% |  |  |  |  | 
CCCCCCCCCC(=O)N[C@@H](CO)[C@@H](O)c1ccccc1 [C10-L-t-APPD] |  | 90% | 800000 mL⁻¹ | 1.2e+06 mL⁻¹ | 2e+06 mL⁻¹ | inhibition at 3 µM (HL-60 cells [1]; Homo sapiens, HL-60, 72 h, Example 3A, 3 μM, three days, read-out: reduction of cell growth as compared to a control): ~10%
CCCCCCCCCCCC(=O)N[C@H](CO)[C@H](O)c1ccc([N+](=O)[O-])cc1 [C12-D-t-ANPPD] | 4% |  |  |  |  | CELL GROWTH (% OF CONTROL) (HL-60 cells [1]; Example 4A, Table II, 3 μM Cn-D-t-ANPPD (C2-ceramide concentration not given), three days, listed as C12 chain analog): about 4 % OF CONTROL
CCCCCCCCCCCC(=O)N[C@@H](CO)[C@@H](O)c1ccccc1 [C12-L-t-APPD] |  | approximately 40% | 300000 mL⁻¹ | 300000 mL⁻¹ | 600000 mL⁻¹ | inhibition of cell growth (in words) (HL-60 cells [1]; 3 μM): able to inhibit cell growth by significant amounts
CCCCCCCCCCCCCC(=O)N[C@H](CO)[C@H](O)c1ccc([N+](=O)[O-])cc1 [C14-D-t-ANPPD] | 1% |  |  |  |  | CELL GROWTH (% OF CONTROL) (HL-60 cells [1]; Example 4A, Table II, 3 μM Cn-D-t-ANPPD (C2-ceramide concentration not given), three days, listed as C14 chain analog): about 1 % OF CONTROL; activity at 0.1 µM (HL-60 cells [1]; Homo sapiens, HL-60, 72 h, Example 4B, Table III, 0.1 μM, three days, read-out: CELL GROWTH (% OF CONTROL)): 110%; activity at 0.2 µM (HL-60 cells [1]; Homo sapiens, HL-60, 72 h, Example 4B, Table III, 0.2 μM, three days, read-out: CELL GROWTH (% OF CONTROL)): 112%; activity at 0.3 µM (HL-60 cells [1]; Homo sapiens, HL-60, 72 h, Example 4B, Table III, 0.3 μM, three days, read-out: CELL GROWTH (% OF CONTROL)): 113%; activity at 0.5 µM (HL-60 cells [1]; Homo sapiens, HL-60, 72 h, Example 4B, Table III, 0.5 μM, three days, read-out: CELL GROWTH (% OF CONTROL)): 105%; activity at 1 µM (HL-60 cells [1]; Homo sapiens, HL-60, 72 h, Example 4B, Table III, 1 μM, three days, read-out: CELL GROWTH (% OF CONTROL)): 85%; activity at 2 µM (HL-60 cells [1]; Homo sapiens, HL-60, 72 h, Example 4B, Table III, 2 μM, three days, read-out: CELL GROWTH (% OF CONTROL)): 12%; activity at 3 µM (HL-60 cells [1]; Homo sapiens, HL-60, 72 h, Example 4B, Table III, 3 μM, three days, read-out: CELL GROWTH (% OF CONTROL)): 3%; activity at 4 µM (HL-60 cells [1]; Homo sapiens, HL-60, 72 h, Example 4B, Table III, 4 μM, three days, read-out: CELL GROWTH (% OF CONTROL)): 2%; IC50 (HL-60 cells [1]; Homo sapiens, HL-60, 72 h, Example 4B, three days, read-out: concentration for 50% inhibition of cell growth): ~1500 nM
CCCCCCCCCCCCCC(=O)N[C@H](C)[C@H](O)c1ccccc1 [C14-D-t-APP-1] |  |  |  |  |  | cell growth, % of control (HL-60 cells [1]; [3]): 49%
CCCCCCCCCCCCCC(=O)N[C@@H](CO)Cc1ccccc1 [C14-DAPP-3] |  |  |  |  |  | cell growth, % of control (HL-60 cells [1]; [3]): 14%
CCCCCCCCCCCCCC(=O)N[C@H](CO)Cc1ccccc1 [C14-LAPP-3] |  |  |  |  |  | cell growth, % of control (HL-60 cells [1]; [3]): 15%
CCCCCCCCCCCCCCCC(=O)N[C@H](CO)[C@H](O)c1ccc([N+](=O)[O-])cc1 [C16-D-t-ANPPD] | 5% |  |  |  |  | CELL GROWTH (% OF CONTROL) (HL-60 cells [1]; [4]): ~5 % OF CONTROL
CCCCCCCCCCCCCCCC(=O)N[C@@H](CO)[C@@H](O)c1ccccc1 [C16-L-t-APPD] |  | ~65% | 400000 mL⁻¹ | 700000 mL⁻¹ | 1.2e+06 mL⁻¹ | inhibition of cell growth (in words) (HL-60 cells [1]; 3 μM): able to inhibit cell growth by significant amounts
CCCCCCCCCCCCCCCCCC(=O)N[C@H](CO)[C@H](O)c1ccc([N+](=O)[O-])cc1 [C18-D-t-ANPPD] | 82% |  |  |  |  | 
CCCCCCCCCCCCCCCCCC(=O)N[C@@H](CO)[C@@H](O)c1ccccc1 [C18-L-t-APPD] |  | 116% | 800000 mL⁻¹ | 1.4e+06 mL⁻¹ | 2.3e+06 mL⁻¹ | 
